Source: patent US11542290B2 (priority 2018, dated 2023)
Several values for one entry are separate records, joined by “and”; a condition that tells them apart may be missing. Equal entries are not always repeated. Where two headings read alike, the source gives them in different places. Each block holds one molecule with its values, some of them ahead of it.

Experiments:
in vitro = conditions: human
P-gp (MDR1) = test: in vitro; conditions: dog
rps29−/− embryos = conditions: in vivo, cited from earlier work
[1] = test system: CD34+ hematopoietic stem and progenitor cells with rps19 knockdown; conditions: cited from earlier work
Caco-2 cells [2] = conditions: cited from earlier work
[3] = test system: embryos of Rps29 heterozygote fish; test: Zebra fish assay (tail mutation and anemia classification, o-dianisidine staining)
Caco-2 cells [4] = test system: Caco-2 cells
[5] = antipsychotic potency; cited from earlier work
[6] = in vivo; cited from earlier work
DBA murine model = conditions: injection; cited from earlier work
[7] = biological target: p70 ribosomal S6 kinase (p70S6K) (Homo sapiens (Human), UniProt P23443); conditions: profiling of over 100 kinases; cited from earlier work
p70 ribosomal S6 kinase (p70S6K), sequence (P23443 whole entry): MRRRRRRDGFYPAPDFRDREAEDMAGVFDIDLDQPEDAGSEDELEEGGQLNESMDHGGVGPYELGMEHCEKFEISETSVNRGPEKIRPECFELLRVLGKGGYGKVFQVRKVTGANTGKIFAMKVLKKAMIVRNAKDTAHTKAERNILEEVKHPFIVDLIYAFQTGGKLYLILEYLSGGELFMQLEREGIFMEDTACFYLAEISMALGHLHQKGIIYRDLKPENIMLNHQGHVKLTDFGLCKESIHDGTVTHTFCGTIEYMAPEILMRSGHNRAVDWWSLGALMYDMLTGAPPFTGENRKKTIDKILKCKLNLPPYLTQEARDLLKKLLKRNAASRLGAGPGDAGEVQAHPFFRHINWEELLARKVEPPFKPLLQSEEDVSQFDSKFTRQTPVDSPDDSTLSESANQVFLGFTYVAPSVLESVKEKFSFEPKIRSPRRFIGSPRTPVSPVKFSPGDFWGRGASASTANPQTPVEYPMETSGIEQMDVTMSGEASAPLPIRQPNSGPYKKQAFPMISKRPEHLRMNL

[8] = Caco-2, Efflux ratio Caco-2 cells
[9] = Caco-2, Permeability coefficient (Papp) Caco-2 cells (A -> B)
[10] = Caco-2, Permeability coefficient (Papp) Caco-2 cells (B -> A)
[11] = MDCK-MDR1, Efflux ratio MDCK-MDR1 cells
[12] = MDCK-MDR1, Permeability coefficient (Papp) MDCK-MDR1 cells (A -> B)
[13] = MDCK-MDR1, Permeability coefficient (Papp) MDCK-MDR1 cells (B -> A)
[14] = 10 μM of the compound, 48 hours of treatment from 24 hours post fertilization

SMILES: c1ccc2c(c1)Nc1ccccc1S2 [10H-phenothiazine]
Papp A→B at 2 h (in vitro; Caco-2): 42.7 ×10⁻⁶ cm/s
Papp B→A at 2 h (in vitro; Caco-2): 37.7 ×10⁻⁶ cm/s
efflux ratio at 2 h (in vitro; Caco-2): 0.88
Papp A→B at 60 min (P-gp (MDR1); MDCK-MDR1): 53.8 ×10⁻⁶ cm/s
Papp B→A at 60 min (P-gp (MDR1); MDCK-MDR1): 38 ×10⁻⁶ cm/s
efflux ratio at 60 min (P-gp (MDR1); MDCK-MDR1): 0.71

SMILES: CC1(CN2CCC(n3c(=O)[nH]c4ccccc43)CC2)OCc2ccccc2-n2cccc21.O=C(O)/C=C\C(=O)O (stereo not shown) [CGS-9343B]
Endothelial defect in rps29 mutant embryos (in words) (rps29−/− embryos; zebrafish): successfully rescued the endothelial defect

SMILES: NCCNS(=O)(=O)c1cccc2c(Cl)cccc12 [Compound A-3]
Hemoglobin levels in the zebrafish embryo (in words) (rps29−/− embryos): rescued hemoglobin levels
Morphology of the embryo head (in words) (rps29−/− embryos; zebrafish): improved the morphology of the apoptotic embryo head
Concentration decreasing the levels of p21 in CD34+ cells ([1]; in vitro): 1 to 50 µM
p53 and p21 levels or nuclear localization (in words) ([1]; rps19 knockdown by siRNA): decreased p53 and p21 levels or nuclear localization

SMILES: NCCCCCCCCCCNS(=O)(=O)c1cccc2c(Cl)cccc12 [Compound A-7]
Vascular defects in rps29 mutant embryos (in words) (rps29−/− embryos; zebrafish): rescued vascular defects

SMILES: NCCCCCCNS(=O)(=O)c1cccc2ccccc12 [Compound W-5]
Vascular defects in rps29 mutant embryos (in words) (rps29−/− embryos; zebrafish): rescued vascular defects

SMILES: NCCCCCCNS(=O)(=O)c1cccc2c(Cl)cccc12 [Compound W-7]
Hemoglobin levels in the zebrafish embryo (in words) (rps29−/− embryos): rescued hemoglobin levels
Endothelial defect in rps29 mutant embryos (in words) (rps29−/− embryos; zebrafish): rescued the endothelial defect

efflux ratio at 2 h (in vitro; [8]): > 173
Papp A→B at 2 h (in vitro; [9]): 0.21 ×10⁻⁶ cm/s
Papp B→A at 2 h (in vitro; [10]): 21.9 ×10⁻⁶ cm/s
efflux ratio at 60 min (P-gp (MDR1); [11]): 0.96
Papp A→B at 60 min (P-gp (MDR1); [12]): 31.9 ×10⁻⁶ cm/s
Papp B→A at 60 min (P-gp (MDR1); [13]): 30.6 ×10⁻⁶ cm/s
SMILES: CC[C@H]1OC(=O)[C@H](C)[C@@H](O[C@H]2C[C@@](C)(OC)[C@@H](O)[C@H](C)O2)[C@H](C)[C@@H](O[C@@H]2O[C@H](C)C[C@H](N(C)C)[C@H]2O)[C@](C)(O)C[C@@H](C)C(=O)[C@H](C)[C@@H](O)[C@]1(C)O [Erythromycin]
Efflux status of reference compound (in words) (Caco-2 cells [2]; Caco-2): efflux substrates

SMILES: OCCN1CCN(CCCN2c3ccccc3Sc3ccc(C(F)(F)F)cc32)CC1 [Fluphenazine, 4-[3-[2-(trifluoromethyl)phenothiazin-10-yl]lpropyl]-1-piperazineethanol]
Endothelial defect in rps29 mutant embryos (in words) (rps29−/− embryos; zebrafish): successfully rescued the endothelial defect

Efflux ratio MDCK-MDR1 cells (MDCK-MDR1 cells; dog, MDCK-MDR1, 60 min): 0
efflux ratio at 2 h (in vitro; [8]): 0.68
Papp A→B at 2 h (in vitro; [9]): 3.81 ×10⁻⁶ cm/s
Papp B→A at 2 h (in vitro; [10]): 2.61 ×10⁻⁶ cm/s
Papp A→B at 60 min (P-gp (MDR1); [12]): < 1.42 ×10⁻⁶ cm/s
SMILES: FC(F)(F)c1ccc2c(c1)N(CCCCN1CCCCC1)c1ccccc1S2 [MT-009, 10-(4-(piperidin-1-yl)butyl)-2-(trifluoromethyl)-10H-phenothiazine]

SMILES: OCCN(CCO)CC(O)CN1c2ccccc2Sc2ccc(C(F)(F)F)cc21 (stereo not shown) [MT-014, 2,2′-(2-hydroxy-3-(2-(trifluoromethyl)-10H-phenothiazin-10-yl)propylazanediyl)-diethanol]
Tail and anemia phenotypes versus DMSO (in words) ([3]; 10 μM, three experiments): less severe tail and anemia phenotypes

efflux ratio at 2 h (in vitro; [8]): 1.33
Papp A→B at 2 h (in vitro; [9]): 12.5 ×10⁻⁶ cm/s
Papp B→A at 2 h (in vitro; [10]): 16.6 ×10⁻⁶ cm/s
efflux ratio at 60 min (P-gp (MDR1); [11]): > 9.83
Papp A→B at 60 min (P-gp (MDR1); [12]): 1.05 ×10⁻⁶ cm/s
Papp B→A at 60 min (P-gp (MDR1); [13]): 10.3 ×10⁻⁶ cm/s
SMILES: OCCOCCOCCN1CCN(CC(O)CN2c3ccccc3Sc3ccc(C(F)(F)F)cc32)CC1 (stereo not shown) [MT-016, 1-(4-(2-(2-(2-hydroxyethoxy)ethoxy)ethyl)piperazin-1-yl)-3-(2-(trifluoromethyl)-10H-phenothiazin-10-yl)propan-2-ol]
Ratio of embryos in group MA (mutant anemic) [3, 14]: 7% and 9% and 5%
Ratio of embryos in group MNA (mutant not anemic) [3, 14]: 7% and 8%
Ratio of embryos in group MPA (mutant partial anemic) [3, 14]: 17% and 10% and 15%
Ratio of embryos in group WT (wild type) [3, 14]: 69% and 74% and 72%

SMILES: CS(=O)(=O)NCC1CCN(CC(O)CN2c3ccccc3Sc3ccc(C(F)(F)F)cc32)CC1 (stereo not shown) [MT-036, N-((1-(2-hydroxy-3-(2-(trifluoromethyl)-10H-phenothiazin-10-yl)propyl)piperidin-4-yl)methyl)methanesulfonamide]
Permeability coefficient (Papp) Caco-2 cells (A -> B) (Caco-2 cells [4]; apical to basolateral, 2-hour): 8.55 10^−6 cm/s
Permeability coefficient (Papp) Caco-2 cells (B -> A) (Caco-2 cells [4]; basolateral to apical, 2-hour): 15.93 10^−6 cm/s
Efflux ratio Caco-2 cells (Caco-2 cells [4]; from mean Papp B-A and A-B, 2-hour transport): 1.86
Permeability coefficient (Papp) MDCK-MDR1 cells (A -> B) (MDCK-MDR1 cells; apical to basolateral, 60-min, 37° C.): 2.85 10^−6 cm/s
Permeability coefficient (Papp) MDCK-MDR1 cells (B -> A) (MDCK-MDR1 cells; basolateral to apical, 60-min, 37° C.): 13.91 10^−6 cm/s
Efflux ratio MDCK-MDR1 cells (MDCK-MDR1 cells; from mean Papp B-A and A-B, 60-min transport, 37° C.): 4.89

Efflux ratio Caco-2 cells (Caco-2 cells [4]; human, Caco-2, 2 h): 1.11
Efflux ratio MDCK-MDR1 cells (MDCK-MDR1 cells; dog, MDCK-MDR1, 60 min): 0.85
efflux ratio at 2 h (in vitro; [8]): 0.89
Papp A→B at 2 h (in vitro; [9]): 33.8 ×10⁻⁶ cm/s
Papp B→A at 2 h (in vitro; [10]): 30.2 ×10⁻⁶ cm/s
efflux ratio at 60 min (P-gp (MDR1); [11]): 0.81
SMILES: COCCc1ccc(OCC(O)CNC(C)C)cc1 (stereo not shown) [Metoprolol]
Cell permeability of reference compound (in words) (Caco-2 cells [2]): high cell permeability

SMILES: OCCN1CCN(CCCN2c3ccccc3Sc3ccc(Cl)cc32)CC1 [Perphenazine, 4-[3-(2-Chloro-10H-phenothiazin-10-yl)propyl]-1-piperazineethanol]
Potency relative to chlorpromazine [5]: approximately 5 times
Endothelial defect in rps29 mutant embryos (in words) (rps29−/− embryos; zebrafish): successfully rescued the endothelial defect
Oral bioavailability [6]: approximately 40%

efflux ratio at 2 h (in vitro; [8]): 0.35
Papp A→B at 2 h (in vitro; [9]): 1.29 ×10⁻⁶ cm/s
Papp B→A at 2 h (in vitro; [10]): 0.46 ×10⁻⁶ cm/s
Papp A→B at 60 min (P-gp (MDR1); [12]): < 1.28 ×10⁻⁶ cm/s
Papp B→A at 60 min (P-gp (MDR1); [13]): < 0.59 ×10⁻⁶ cm/s
SMILES: CN1CCN(CCCN2c3ccccc3Sc3ccc(Cl)cc32)CC1 [Prochloperazine]

Papp A→B at 60 min (P-gp (MDR1); [12]): 10.1 ×10⁻⁶ cm/s
Papp B→A at 60 min (P-gp (MDR1); [13]): 44 ×10⁻⁶ cm/s
SMILES: C=C[C@H]1C[N@@]2CC[C@H]1C[C@@H]2[C@@H](O)c1ccnc2ccc(OC)cc12 [Quinidine]

Papp A→B at 2 h (in vitro; [9]): 4.07 ×10⁻⁶ cm/s
Papp B→A at 2 h (in vitro; [10]): 3.51 ×10⁻⁶ cm/s
Papp A→B at 60 min (P-gp (MDR1); [12]): 3.35 ×10⁻⁶ cm/s
Papp B→A at 60 min (P-gp (MDR1); [13]): 3.56 ×10⁻⁶ cm/s
SMILES: CN1CCN(CCCN2c3ccccc3Sc3ccc(S(=O)(=O)N(C)C)cc32)CC1 [Thioproperazine Dimesilate]

SMILES: CN1CCN(CCCN2c3ccccc3Sc3ccc(C(F)(F)F)cc32)CC1 [Trifluoperazine, 10-[3-(4-methylpiperazin-1-yl)propyl]-2-(trifluoromethyl)phenothiazine]
Endothelial defect in rps29 mutant embryos (in words) (rps29−/− embryos; zebrafish): successfully rescued the endothelial defect
Concentration restoring the percentage of CD71+ cells in an erythroid cell population ([1]; in vitro): 5 to 20 µM
Erythroid differentiation block (in words) ([1]; shRNA against RPS19, primary CD34+ bone marrow cells from DBA patients): relieved the erythroid differentiation block
Red blood cell number and hemoglobin levels (in words) (DBA murine model): significantly increased red blood cell number and hemoglobin levels
p53 activity in the bone marrow (in words) (DBA murine model): reduced p53 activity in the bone marrow
Papp A→B at 60 min (P-gp (MDR1); [12]): < 0.87 ×10⁻⁶ cm/s
Kinase activity of p70S6K (in words) [7]: inhibited the activity
